Measured values taken from patent publication US12171833B2, “Mucoadhesive polymeric drug delivery compositions and methods” (The University of British Columbia, priority 2020, dated 2024).

Columns and labels:
[1] = In vitro drug release from formulation A (dialysis mini chamber, PBS, 37° C.); format: physicochemical; details: 100 mg, PBS pH 7.4, 37° C., up to 30 hours
Procedure: Formulation A of PLGA 5%, HA 3%, PEG 92% was made up as described in TABLE 8. […] For the protein study the mini chamber was not closed but a small retaining sponge applied. The chamber was placed in 5 mL of PBS (pH 7.4 or PBS containing albumin to increase the solubility of docetaxel) and placed in an incubator at 37° C.

[2] = 30 min IV infusion, cited from earlier work

drug release from paste [1]: faster than the other two agents
SMILES: Nc1ccn([C@@H]2O[C@H](CO)[C@@H](O)C2(F)F)c(=O)n1 [gemcitabine]
AUC0-inf ([2]; 1250 mg/m^2 (32.1 mg/kg), literature): 12500 ng·h/mL
kel ([2]; 1250 mg/m^2, literature): 3.18 h⁻¹
t1/2 (terminal) ([2]; 1250 mg/m^2, literature): 13.8 min
